Target: T1, human renal renin (Homo sapiens, UniProt P00797)
T1 construct: human renal renin, free from acid proteolytic activity; from tissue
T1 sequence (P00797 67-406): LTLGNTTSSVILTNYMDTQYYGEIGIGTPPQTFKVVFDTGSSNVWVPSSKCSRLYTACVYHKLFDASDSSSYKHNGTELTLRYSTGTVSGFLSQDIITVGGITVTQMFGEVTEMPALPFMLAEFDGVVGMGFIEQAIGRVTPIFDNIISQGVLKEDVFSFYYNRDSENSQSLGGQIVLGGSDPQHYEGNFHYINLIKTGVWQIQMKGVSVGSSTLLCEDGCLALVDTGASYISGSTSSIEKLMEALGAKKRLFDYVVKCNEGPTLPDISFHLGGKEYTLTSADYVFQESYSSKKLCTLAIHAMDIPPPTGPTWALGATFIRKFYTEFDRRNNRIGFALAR
Experiment: In vitro inhibition of human renal renin; angiotensin I formed measured by radioimmunoassay
Type: biochemical
Conditions: human renin substrate (angiotensinogen), 37° C., pH 6.0
Protocol: At the end of the incubation, the amount of angiotensin I formed is measured by radioimmunoassay and the percent inhibition or renin is calculated.

Question: `CC(C)CC(NC(=O)C(Cc1cnc[nH]1)NC(=O)C(Cc1ccccc1)NC(=O)OC(C)(C)C)C(O)CSc1ccccc1` (stereo not drawn) [Example 23, Boc-Phe-His amide of 3-amino-2 hydroxy-5-methyl 1-phenylmercaptohexane] was tested. Which Inhibition (@ 10^-6) did it give?
Answer: 56%

Question: With `CC(C)CC(NC(=O)C(C)NC(=O)C(Cc1ccccc1)NC(=O)OC(C)(C)C)C(O)CSc1ccccc1` (stereo not drawn) [Example 25, Boc-Phe-Ala amide of 3-amino-2-hydroxy-5-methyl-1 phenylmercaptohexane] as the molecule, how does the Inhibition (@ 10^-5) read?
Answer: 56%

Question: For `CC(C)CC(NC(=O)C(C)NC(=O)C(Cc1ccccc1)NC(=O)OC(C)(C)C)C(O)CSCc1ccccc1` (stereo not drawn) [Example 28, Boc-Phe-Ala amide of 3 amino 1-benzylmercapto-2 hydroxy-5-methylhexane], which Inhibition (@ 10^-5) is on record?
Answer: 57%

Question: With `CC(C)CC(NC(=O)C(C)NC(=O)C(Cc1ccccc1)NC(=O)OC(C)(C)C)C(O)CSC1CCCCC1` (stereo not drawn) [Example 29, Boc-Phe-Ala amide of 3-amino-1-cyclohexyl mercapto-2-hydroxy-5-methylhexane] as the molecule, how does the Inhibition (@ 10^-5) read?
Answer: 94%

Question: Which Inhibition (@ 10^-5) does the source give for `CC(C)CC(NC(=O)C(C)NC(=O)C(Cc1ccccc1)NC(=O)OC(C)(C)C)C(O)CNc1ccccc1` (stereo not drawn) [Example 31, Boc-Phe-Ala amide of 3-amino-2-hydroxy-5-methyl-1-phenylaminohexane] here?
Answer: 31%

Question: With `CC(C)(C)OC(=O)NC(Cc1ccccc1)C(=O)NC(Cc1cnc[nH]1)C(=O)NC(Cc1ccccc1)C(O)CSC1CCCCC1` (stereo not drawn) [Example 50, Boc-Phe-His amide of 3-amino-1-cyclohexylmercapto-2-hydroxy-4-phenylbutane] as the molecule, how does the Inhibition (@ 10^-7) read?
Answer: 89%

Question: How did the Inhibition (@ 10^-8) turn out when `CC(C)SCC(O)C(CC1CCCCC1)NC(=O)C(Cc1cnc[nH]1)NC(=O)C(Cc1ccccc1)NC(=O)OC(C)(C)C` (stereo not drawn) [Example 51, Boc-Phe-His amide of 3 amino-4-cyclohexyl-2-hydroxy-1-isopropylmercaptobutane] was run?
Answer: 80%

Question: With `CC(C)(C)OC(=O)NC(Cc1ccccc1)C(=O)NC(Cc1cnc[nH]1)C(=O)NC(CC1CCCCC1)C(O)CS(=O)(=O)C1CCCCC1` (stereo not drawn) [Example 54, Boc-Phe-His amide of 3 amino-4-cyclohexyl-1-cyclohexylsulfonyl-2-hydroxybutane] as the molecule, how does the Inhibition (@ 10^-8) read?
Answer: 81%

Question: `CC(C)CC(NC(=O)C(C)NC(=O)C(Cc1ccccc1)NC(=O)OC(C)(C)C)C(O)C[S+]([O-])C1CCCCC1` (stereo not drawn) [Example 55, Boc-Phe Ala amide of 3-amino-1-cyclohexyl sulfinyl-2-hydroxy-5-methylhexane] was tested. Which Inhibition (@ 10^-5) did it give?
Answer: 46%

Question: Which Inhibition (@ 10^-6) does the source give for `CC(C)CC(=O)NCC(O)C(CC(C)C)NC(=O)C(Cc1cnc[nH]1)NC(=O)C(Cc1ccccc1)NC(=O)OC(C)(C)C` (stereo not drawn) [Example 79, Boc-Phe-His Amide of 3-Amino-2- hydroxy-1-(isovalerylamino)-5-methylhexane] here?
Answer: 63%

Question: How did the Inhibition (@ 10^-7) turn out when `O=C(NC(Cc1cnc[nH]1)C(=O)NC(CC1CCCCC1)C(O)CSC1CCCCC1)C(Cc1ccccc1)Cc1ccccc1` (stereo not drawn) [Example 81, Dba-His Amide of 3-amino-4-cyclohexyl-1-cyclohexylmercapto-2-hydroxybutane] was run?
Answer: 71%

Question: With `CC(C)(C)CC(=O)NC(Cc1ccccc1)C(=O)NC(Cc1c[nH]cn1)C(=O)NC(CC1CCCCC1)C(O)CSC1CCCCC1` (stereo not drawn) [Example 82, Tba-Phe-His-Amide of 3-amino-4-cyclohexyl-1-cyclohexylmercapto-2-hydroxybutane] as the molecule, how does the Inhibition (@ 10^-8) read?
Answer: 82%

— US4826815A, “Renin inhibiting compounds” (Abbott Laboratories, priority 1987, dated 1989)
